Data taken from BindingDB's records for doi:10.7270/Q2TX3CSC (Vanderbilt Screening Center for GPCRs, Ion Channels and …, 2009).
Non-standard residues stand in square brackets, D forms with d. Residues, ends and D or L forms follow the SMILES beside them. ξ: configuration not given here. *: point of attachment. ξF = NC(Cc1ccccc1)C(=O)O; Cbz = O=C(OCc1ccccc1)*

Target: T1, Solute carrier family 12 member 5 (Homo sapiens, UniProt Q9H2X9)
T1 sequence (Q9H2X9 whole entry): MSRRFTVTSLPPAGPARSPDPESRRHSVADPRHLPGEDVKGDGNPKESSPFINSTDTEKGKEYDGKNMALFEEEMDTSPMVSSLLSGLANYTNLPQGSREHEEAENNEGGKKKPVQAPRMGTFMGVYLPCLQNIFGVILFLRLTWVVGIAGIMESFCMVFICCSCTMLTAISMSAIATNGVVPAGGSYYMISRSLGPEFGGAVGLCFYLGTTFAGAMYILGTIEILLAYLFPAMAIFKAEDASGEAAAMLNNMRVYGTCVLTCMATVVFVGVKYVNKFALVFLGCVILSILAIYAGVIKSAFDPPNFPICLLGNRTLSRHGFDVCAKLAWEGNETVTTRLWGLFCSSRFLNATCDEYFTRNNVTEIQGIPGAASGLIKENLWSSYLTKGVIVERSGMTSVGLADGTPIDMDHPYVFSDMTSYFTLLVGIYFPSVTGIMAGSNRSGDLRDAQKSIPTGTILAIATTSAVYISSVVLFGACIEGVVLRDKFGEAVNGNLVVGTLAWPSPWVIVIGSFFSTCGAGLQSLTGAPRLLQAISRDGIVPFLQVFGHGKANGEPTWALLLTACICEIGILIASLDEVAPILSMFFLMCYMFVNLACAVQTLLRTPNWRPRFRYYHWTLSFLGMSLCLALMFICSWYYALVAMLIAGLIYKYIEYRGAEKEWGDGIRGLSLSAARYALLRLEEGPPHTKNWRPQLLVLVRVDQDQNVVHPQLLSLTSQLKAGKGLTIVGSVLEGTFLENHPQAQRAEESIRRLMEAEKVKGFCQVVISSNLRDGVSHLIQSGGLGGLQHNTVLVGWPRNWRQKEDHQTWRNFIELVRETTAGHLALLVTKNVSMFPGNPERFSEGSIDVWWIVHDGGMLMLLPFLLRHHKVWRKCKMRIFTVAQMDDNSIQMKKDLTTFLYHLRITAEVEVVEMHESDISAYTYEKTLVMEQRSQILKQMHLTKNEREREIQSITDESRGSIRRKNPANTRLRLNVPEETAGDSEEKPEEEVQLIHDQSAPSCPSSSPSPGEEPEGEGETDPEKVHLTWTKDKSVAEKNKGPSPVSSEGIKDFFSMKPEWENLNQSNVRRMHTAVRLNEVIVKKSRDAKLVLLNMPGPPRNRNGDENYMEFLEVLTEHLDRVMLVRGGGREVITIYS
Assay: KCC2 modulator potency by thallium flux, dose response, cell-based, HEK293 KCC2, FluoZin-2 fluorescence (AID 1736)
Details: not given

Compound | EC50 [µM]
O=C(c1ccc(S(=O)(=O)c2cccc(Cl)c2)c([N+](=O)[O-])c1)N1CCN(c2ccccn2)CC1 [1-{4-[(3-chlorophenyl)sulfonyl]-3-nitrobenzoyl}-4-pyridin-2-ylpiperazine] | 6.85
COc1cc(C=NNC(=O)CN(Cc2ccccc2)S(=O)(=O)c2ccc3c(c2)OCCO3)ccc1O [2,3-Dihydro-benzo[1,4]dioxine-6-sulfonic acid benzyl-(4-hydroxy-3-methoxy-benzylidene-hydrazinocarbonylmethyl)-amide] | 2.79
O=C(NC(=S)Nc1nc(-c2cccc([N+](=O)[O-])c2)cs1)c1cc(Cl)ccc1Cl [2,5-bis(chloranyl)-N-[[4-(3-nitrophenyl)-1,3-thiazol-2-yl]carbamothioyl]benzamide] | 16.2
CCn1nnnc1SCC(=O)Nc1nc(-c2cccs2)cs1 [2-(1-Ethyl-1H-tetrazol-5-ylsulfanyl)-N-(4-thiophen-2-yl-thiazol-2-yl)-acetamide] | 1.32
Cn1c(CSc2nc3ccccc3s2)nc2ccccc21 [2-(1-Methyl-1H-benzoimidazol-2-ylmethylsulfanyl)-benzothiazole] | 14.8
C=CCNc1oc(Cc2cccc3ccccc23)nc1C#N [2-(1-naphthalenylmethyl)-5-(prop-2-enylamino)-4-oxazolecarbonitrile] | 4.78
O=C(CN1C(=O)NC2(CCCC2)C1=O)Nc1nc(-c2ccc(F)cc2)cs1 [2-(2,4-diketo-1,3-diazaspiro[4.4]nonan-3-yl)-N-[4-(4-fluorophenyl)thiazol-2-yl]acetamide] | 0.0699
CCc1ccc(C(=O)COC(=O)c2cc([N+](=O)[O-])ccc2NCCO)cc1 [2-(2-hydroxyethylamino)-5-nitro-benzoic acid [2-(4-ethylphenyl)-2-keto-ethyl] ester] | 17.2
O=C(COC(=O)c1cc([N+](=O)[O-])ccc1NCCO)c1ccccc1 [2-(2-hydroxyethylamino)-5-nitro-benzoic acid phenacyl ester] | 9.16
Cc1cc(C)c(C#N)c(N2CCN(Cc3ccccc3)CC2)n1 [2-(4-benzyl-1-piperazinyl)-4,6-dimethylnicotinonitrile] | 11.3
O=C(Cn1nc(-c2ccccc2)ccc1=O)NCc1ccc2c(c1)OCO2 [2-(6-keto-3-phenyl-pyridazin-1-yl)-N-piperonyl-acetamide] | 3.26
O=C(Cn1cnc2c(nnn2-c2ccccc2)c1=O)NCCc1ccccc1 [2-(7-keto-3-phenyl-triazolo[4,5-d]pyrimidin-6-yl)-N-phenethyl-acetamide] | 27.5
O=C(COC(=O)c1cc([N+](=O)[O-])ccc1NCc1ccccc1)NC1CCCCC1 [2-(benzylamino)-5-nitro-benzoic acid [2-(cyclohexylamino)-2-keto-ethyl] ester] | 0.651
O=C(O)c1cc([N+](=O)[O-])ccc1NCc1ccccc1 [2-(benzylamino)-5-nitro-benzoic acid] | 4.19
O=[N+]([O-])c1ccc(CSc2nnc(SCc3ccccc3)s2)cc1 [2-(benzylthio)-5-[(4-nitrobenzyl)thio]-1,3,4-thiadiazole] | 2.24
CCc1ccc(OCCNC(=O)c2ccccc2SCc2ccccc2)cc1 [2-(benzylthio)-N-[2-(4-ethylphenoxy)ethyl]benzamide] | 7.39
O=c1c2ccccc2c(-c2nnc(S)o2)nn1Cc1ccccc1 [2-(phenylmethyl)-4-(2-sulfanylidene-3H-1,3,4-oxadiazol-5-yl)-1-phthalazinone] | 2.98
COc1ccc(S(=O)(=O)N2CCC(C(=O)N3CCc4ccccc4C3)CC2)cc1C [2-({1-[(4-methoxy-3-methylphenyl)sulfonyl]-4-piperidinyl}carbonyl)-1,2,3,4-tetrahydroisoquinoline] | 5.4

Compound | EC50 [µM]
O=C(CSc1nnnn1-c1ccc(Cl)cc1)N1CCc2ccccc2C1 [2-[1-(4-chlorophenyl)tetrazol-5-yl]sulfanyl-1-(3,4-dihydro-1H-isoquinolin-2-yl)ethanone] | 4.09
O=C(CSc1ccccc1C(=O)NCc1ccccc1)NC1CCCCCCC1 [2-[2-(cyclooctylamino)-2-oxidanylidene-ethyl]sulfanyl-N-(phenylmethyl)benzamide] | 51.6
NC(=O)COc1ccccc1/C=C1/SC(=O)N(CC(=O)N2CCc3ccccc3C2)C1=O [2-[2-({3-[2-(3,4-dihydro-2(1H)-isoquinolinyl)-2-oxoethyl]-2,4-dioxo-1,3-thiazolidin-5-ylidene}methyl)phenoxy]acetamide] | 32
O=C(Cn1cnc2c(nnn2Cc2ccc(F)cc2)c1=O)NCc1ccc2c(c1)OCO2 [2-[3-(4-fluorobenzyl)-7-keto-triazolo[4,5-d]pyrimidin-6-yl]-N-piperonyl-acetamide] | 1.69
O=[N+]([O-])c1cc(-n2c(O)c3c(c2O)CCCC3)ccc1NC1CCN(Cc2ccccc2)CC1 [2-[3-nitro-4-[[1-(phenylmethyl)-4-piperidinyl]amino]phenyl]-3a,4,5,6,7,7a-hexahydroisoindole-1,3-dione] | 221
O=C(CSc1nnc(-c2ccc(F)cc2)o1)N1CCN(C(=O)c2ccco2)CC1 [2-[5-(4-Fluoro-phenyl)-[1,3,4]oxadiazol-2-ylsulfanyl]-1-[4-(furan-2-carbonyl)-piperazin-1-yl]-ethanone] | 7.01
Cc1ccc(C)c(NC(=O)CSc2nnc([C@@H](N)Cc3ccccc3)o2)c1 [2-[5-((S)-1-Amino-2-phenyl-ethyl)-[1,3,4]oxadiazol-2-ylsulfanyl]-N-(2,5-dimethyl-phenyl)-acetamide] | 5.54
CC1CCN(C(=O)CSc2ccc(-c3ccc(F)cc3)nn2)CC1 [2-[6-(4-Fluoro-phenyl)-pyridazin-3-ylsulfanyl]-1-(4-methyl-piperidin-1-yl)-ethanone] | 2.66
Cc1cc(NC(=O)CSc2ccc(-c3ccc(F)cc3)nn2)no1 [2-[6-(4-fluorophenyl)pyridazin-3-yl]sulfanyl-N-(5-methyl-1,2-oxazol-3-yl)acetamide] | 0.171
Cc1ccc(NC(=O)CSc2ccc(-c3ccco3)nn2)cc1 [2-[6-(furan-2-yl)pyridazin-3-yl]sulfanyl-N-(4-methylphenyl)acetamide] | 3.48
CCC(Cc1ccccc1)NC(=O)CN(C)S(=O)(=O)c1ccc2c(c1)c(=O)n(C)c(=O)n2C (stereo not given) [2-[(1,3-dimethyl-2,4-dioxo-6-quinazolinyl)sulfonyl-methylamino]-N-(1-phenylbutan-2-yl)acetamide] | 7.26
Cn1c(SCc2ccccc2Cl)nc2ccccc21 [2-[(2-chlorobenzyl)thio]-1-methyl-1H-benzimidazole] | 260
Cc1[nH]c2ccccc2c1SCC(=O)N1CCN(c2ccccc2)CC1 [2-[(2-methyl-1H-indol-3-yl)thio]-1-(4-phenyl-1-piperazinyl)ethanone] | 4.24
Cc1ccc(/C=C2/Sc3ccccc3N(CC(=O)NCCCOC(C)C)C2=O)cc1 [2-[(2E)-2-[(4-methylphenyl)methylidene]-3-oxidanylidene-1,4-benzothiazin-4-yl]-N-(3-propan-2-yloxypropyl)ethanamide] | 964
COc1ccc(S(=O)(=O)N(CCc2ccccc2)CC(=O)O)cc1Cl [2-[(3-chloranyl-4-methoxy-phenyl)sulfonyl-(2-phenylethyl)amino]ethanoic acid] | 7.63
Cc1ccc(NC(=O)c2ccccc2NS(=O)(=O)c2ccc(Cl)s2)cc1 [2-[(5-chloranylthiophen-2-yl)sulfonylamino]-N-(4-methylphenyl)benzamide] | 1.17
CCOC(=O)CNC(=O)C(Cc1ccccc1)NC(=O)OCc1ccccc1 (stereo not given) [2-[[1-oxo-3-phenyl-2-(phenylmethoxycarbonylamino)propyl]amino]acetic acid ethyl ester] (Cbz-[ξF]-Gly-OEt) | 3.01

Same assay, conditions: inactive by the depositor's call

Compound | EC50 [µM]
Cn1cc(SCC(=O)N2CCN(c3ccccc3)CC2)c2ccccc21 [2-(1-methylindol-3-yl)sulfanyl-1-(4-phenylpiperazin-1-yl)ethanone] | 78.4
O=C(CSc1nnnn1-c1ccccc1)Nc1nsc(-c2ccccc2)n1 [2-(1-phenyltetrazol-5-yl)sulfanyl-N-(5-phenyl-1,2,4-thiadiazol-3-yl)acetamide] | 1.4
COc1ccccc1-c1nc(C#N)c(N2CCC(Cc3ccccc3)CC2)o1 [2-(2-methoxyphenyl)-5-[4-(phenylmethyl)-1-piperidinyl]-4-oxazolecarbonitrile] | 0.733
Cc1nc(CC(=O)Nc2nc(-c3ccccc3)cs2)cs1 [2-(2-methyl-1,3-thiazol-4-yl)-N-(4-phenyl-1,3-thiazol-2-yl)acetamide] | 1.81
O=C(COc1ccc2ccccc2c1)NN=Cc1ccccn1 [2-(2-naphthalenyloxy)-N-(2-pyridinylmethylideneamino)acetamide] | 330
